# Patent US20150119698A1, “Compositions Comprising Near-Infrared Fluorescent Particles And Uses Thereof For Imaging Activated Immune Cells In the CNS” (priority 2012, published 2015)
# Legend:
# [1] = test system: brain of mice following infection with Plasmodium berghei ANKA or naïve mice; assay: Probe distribution into the CNS in experimental cerebral malaria, images 4 hours post injection; assay type: in vivo; details: tail vein injection
# [2] = test system: brains of mice 6 days post infection with P. berghei ANKA versus naïve mice; details: mouse, in vivo
# Experimental: In an additional experiment, C57 black mice were infected with 80,000 parasites (P. berghei ANKA). […] Mice were scanned by IVIS™ optical imager. The measurements were performed for 5 hours. For each mouse, the intensity of brain ICG emission was compared to that of the foot. […] Five hours post injection mice were sacrificed and brains were scanned by TYPHOON™ imager.
smiles,measurement,setting,value
"CC1(C)C(/C=C/C=C/C=C/C=C2\N(CCCCS(=O)(=O)O)c3ccc4ccccc4c3C2(C)C)=[N+](CCCCS(=O)(=O)[O-])c2ccc3ccccc3c21 [free ICG, Indocyanine green]",uptake into the brain of diseased mice,[1]; mice infected with Plasmodium berghei ANKA,"but not free ICG, were preferentially uptaken into the brain"
same,fluorescence in the brain of naïve mice,[1]; naïve mice,no significant fluorescence
same,"brain emission, infected versus naïve mice (statistical difference)",[2],not statistically different
